Source: patent EP3246325A1, “2-ACYLAMINOTHIAZOLE COMPOUND CRYSTALS” (priority 2011, dated 2013)
Where a name gives a salt, the structure may show the parent alone.

How the values were obtained:
Human c-mpl-Ba/F3 cells = experiment: Cell proliferation test for human c-mpl-Ba/F3 cells (WST-1/1-methoxy PMS absorbance); conditions: based on the maximum cell proliferation activity of rhTPO being 100%
Description: Test Example 1 Cell Proliferation Test for Human c-mpl-Ba/F3 Cells
Human c-mpl-Ba/F3 cells at a concentration of 2 x 10^5 cells/mL were cultured at 37 degree C on a 96 well microplate using RPMI 1640 culture medium (100 microliter/ well) containing 10% fetal calf serum to which various concentrations of the test compound was added. After 24 hours from the start of culturing, 10 microliter/well of WST-1/1-methoxy PMS (cell measuring kit, Dojin) was added. Immediately after the addition and two hours later, the A450/A650 absorbance was measured using a microplate reader (Model 3350, Bio-Rad), and the increase in absorbance after 2 hours was interpreted to represent the proliferation activity of each test compound.

[1] = tested on: Ba/F3 cells where c-mpl was not introduced; experiment: Cell proliferation test with Ba/F3 cells where c-mpl was not introduced (counter-test); format: cell-based
human c-mpl-Ba/F3 cell = experiment: Mouse oral administration test: blood plasma after oral dosing added to the human c-mpl-Ba/F3 cell proliferation test system; format: in vivo, male ICR mice; conditions: 3 mg/kg orally; for oral absorption: verbal conclusion from Table 1, mice; for Cell proliferation activity (%): male ICR mice, blood sampled 2 hours after administration, maximum activity of each test compound = 100%
Description: Test Example 2: Mouse Oral Administration Test 3 mg/kg of the test compound suspended in an aqueous solution of 0.5% methylcellulose was orally administered to male ICR mice. […] Table 1 Human c-mpl-Ba/F3 cell proliferation activity of […] after orally administering test compounds

O=C(Nc1nc(-c2cc(Cl)cs2)c(N2CCN(C3CCCCC3)CC2)s1)c1cnc(N2CCC(C(=O)O)CC2)c(Cl)c1 [listing 1 of 2 here]
Emax (Human c-mpl-Ba/F3 cells): 102%
cell proliferation effect [1]: a cell proliferation effect was not observed

O=C(Nc1nc(-c2cc(Cl)cs2)c(N2CCN(C3CCCCC3)CC2)s1)c1cnc(N2CCC(C(=O)O)CC2)c(Cl)c1 [listing 2 of 2 here]
oral absorption (human c-mpl-Ba/F3 cell): excellent oral absorption

O=C(Nc1nc(-c2cc(Cl)cs2)c(N2CCN(C3CCCCC3)CC2)s1)c1cnc(N2CCC(C(=O)O)CC2)c(Cl)c1.O=C(O)/C=C\C(=O)O [1-(3-chloro-5-{[4-(4-chlorothiophen-2-yl)-5-(4-cyclohexylpiperazin-1-yl)thiazol-2-yl]carbamoyl}pyridin-2-yl) piperidine-4-carboxylic acid maleic acid salt]
oral absorption (human c-mpl-Ba/F3 cell; listed as compound X maleic acid salt C type crystal, 3 mg/kg): excellent oral absorption

O=C(Nc1nc(-c2cc(Cl)cs2)c(N2CCN(C3CCCCC3)CC2)s1)c1cnc(N2CCC(C(=O)O)CC2)c(Cl)c1 [Compound X hydrochloride, reference compound]
Cell proliferation activity (%) (human c-mpl-Ba/F3 cell; 10% blood plasma concentration): 34%

O=C(Nc1nc(-c2cc(Cl)cs2)c(N2CCN(C3CCCCC3)CC2)s1)c1cnc(N2CCC(C(=O)O)CC2)c(Cl)c1.O=C(O)/C=C\C(=O)O [1-(3-chloro-5-{ [4-(4-chlorothiophen-2-yl)-5-(4-cyclohexylpiperazin-1-yl)thiazol-2-yl]carbamoyl}pyridin-2-yl) piperidine-4-carboxylic acid maleic acid salt]
Cell proliferation activity (%) (human c-mpl-Ba/F3 cell; 0.3% blood plasma concentration): < 10%
oral absorption (human c-mpl-Ba/F3 cell; listed as compound X maleic acid B type crystals, 3 mg/kg): inferior oral absorption
